The results in this text go back to EP0428132A1, “Pradimicin derivatives” (Bristol-Myers Squibb Company, priority 1989, dated 1991).

Broadly, the MIC is the lowest concentration found to suppress growth. Usually solubility stands for how much of the substance goes into solution per volume.

One data set deals with FA21436. The data set is described as follows: In vitro antifungal activity, serial agar dilution method (Table 1). Type of data set: cell-based, Asoergukkys flavus. The conditions noted are these: for MIC: 40 h, pH 7, read-out: MIC, Asoergukkys flavus FA21436; for Partial Inhibition, Asoergukkys flavus FA21436: value in parentheses = Partial Inhibition, Sabouraud dextrose agar (pH 7.0), 28°C for 40 hours. The protocol: (§1) The inoculum size was adjusted to 10⁶ cells/ml, and a volume of approximately 0.003 ml of fungal suspension was applied to the surface of the antibiotic containing agar plates with a multiinoculator. After incubation, the lowest concentration of antibiotic causing virtually complete inhibition of fungal growth was determined as the minimum inhibitory concentration (MIC). Table 1. [table]
For orientation: In agar dilution, organisms are placed on agar that contains the substance at set levels.

The test system of data set [1] is Aspergillus fumigatus IAM2034. The description is as above. Type of data set: cell-based. The following applies: Sabouraud dextrose agar (pH 7.0), 28°C for 40 hours; for MIC: Aspergillus fumigatus, IAM2034; for Partial Inhibition, Aspergillus fumigatus IAM2034: value in parentheses = Partial Inhibition. The protocol: as §1
Data set [2] has as its system Aspergillus fumigatus IAM2530. Described as above. Type of data set: cell-based. The conditions noted are these: Sabouraud dextrose agar (pH 7.0), 28°C for 40 hours; for MIC: Aspergillus fumigatus, IAM2530. The protocol: as §1
In data set [3] the test system is Blastomyces dermatidis D40. The description is as above. It is filed as cell-based. The conditions noted are these: for MIC: Blastomyces, D40, 40 h, pH 7, read-out: MIC, Blastomyces dermatidis D40; for Partial Inhibition, Blastomyces dermatidis D40: value in parentheses = Partial Inhibition, Sabouraud dextrose agar (pH 7.0), 28°C for 40 hours. The protocol: as §1

Data set [4] has as its system Candida albicans A9540. The data set is described as above. It is filed as cell-based. The conditions noted are these: Sabouraud dextrose agar (pH 7.0), 28°C for 40 hours; for MIC: Candida albicans, A9540. The protocol: as §1
A further data set has as its system Candida albicans IAM4888. The description is as above. It is filed as cell-based. The conditions noted are these: Sabouraud dextrose agar (pH 7.0), 28°C for 40 hours; for MIC: Candida albicans, IAM4888. How it is done: as §1
Data set [5] relates to Cryptococcus neoformans D49. Described as above. Type of data set: cell-based. The following applies: Cryptococcus neoformans, D49, 40 h, pH 7, read-out: MIC, Cryptococcus neoformans D49. The protocol:
as §1

In data set [6] the test system is Cryptococcus neoformans IAM4514. The description is as above. The following applies: Cryptococcus neoformans, IAM4514; Sabouraud dextrose agar (pH 7.0); 28°C for 40 hours. It is filed as cell-based. How it is done:
as §1

Data set [7] relates to Fusarium moniliforme A2284. The description is as above. Type of data set: cell-based. The following applies: Fusarium verticillioides, A2284; Sabouraud dextrose agar (pH 7.0); 28°C for 40 hours. The protocol: as §1
A further data set has as its system Mucor spinosus IFO5317. The data set is described as above. Type of data set: cell-based. The following applies: Sabouraud dextrose agar (pH 7.0), 28°C for 40 hours; for MIC: Mucor spinosus, IFO5317; for Partial Inhibition, Mucor spinosus IFO5317: value in parentheses = Partial Inhibition. How it is done: as §1
In data set [8] the test system is Petriellidium boydii IFO8078. The data set is described as above. It is filed as cell-based. The following applies: Scedosporium boydii, IFO8078; Sabouraud dextrose agar (pH 7.0); 28°C for 40 hours. How it is done: as §1
The test system of data set [9] is Sprotricosis schenckii IFO8158. Described as above. It is filed as cell-based. The following applies: for MIC: 40 h, pH 7, read-out: MIC, Sprotricosis schenckii IFO8158; for Partial Inhibition, Sprotricosis schenckii IFO8158: value in parentheses = Partial Inhibition, Sabouraud dextrose agar (pH 7.0), 28°C for 40 hours. How it is done: as §1
Data set [10] relates to Trichophyton mentagrophytes #4329. The data set is described as above. It is filed as cell-based. The following applies: Sabouraud dextrose agar (pH 7.0), 28°C for 40 hours; for MIC: Trichophyton mentagrophytes. How it is done:
as §1

Data set [11] concerns Trichophyton mentagrophytes D155. The description is as above. Type of data set: cell-based. The following applies: Trichophyton mentagrophytes, D155; Sabouraud dextrose agar (pH 7.0); 28°C for 40 hours. The protocol: as §1
Data set [12] has as its system Candida albicans A9540. The data set is described as follows: Intravenous Candida albicans infection mouse model, Table 2 part A. Type of data set: in vivo. The following applies: drug administered once just after infection, 20 days after fungal challenge, method of Litchfield and Wilcoxon, male ICR mice. The protocol: Several compounds were also evaluated in an intravenous Candida albicans […] infection mouse model. The test organism was suspended in saline approximately 10 times the median lethal dose of the fungus (10⁶ cells/mouse) were used to infect intravenously male ICR mice weighing 20 to 24 g. Groups of five mice at each dose level were given the test compounds intravenously or intramuscularly. The 50% protective dose (PD₅₀) was calculated from survival rates recorded 20 or 21 days after the fungal challenge. Control animals died between 7 to 15 days.

The mark [13] stands for this setting: value in parentheses = Partial Inhibition.

Converted amounts (≈) assume the structure as drawn.

Procedure for physchem: The sample (3 ∼ 3.5 mg) was suspended in 1 ml of PBS(-) or PBS(+), sonicated at 30°C for 10 minutes, and allowed to stand at room temperature for 2 hours. The resulting solution or suspension was centrifuged at 12,000 rpm for 10 minutes. The supernatant (pH 6.7 ∼ 7.2) was diluted (5 x or 50 x) with 0.01N NaOH (pH ca. 11.5) and its UV absorption at 500 nm was measured. The solubility was assessed by the absorption coefficient value with reference to the standard. […] The zwitterionic form sample was used for the solubility test as it is. The hydrochloride salt sample (3 mg) was dissolved in 3 ml of distilled water and neutralized with 0.01N NaOH, and then the solution was lyophilized to give a test sample.
Dulbecco's phosphate buffered saline (PBS) solution was used. Preparation of PBS(-) solution: One PBS(-) tablet (Flow Laboratories, Cat. No. 28-103-05) was dissolved in 100 ml distilled water, and the solution was autoclaved for 10 minutes at 115°C. This solution contains 0.2 g/L of KCl, 0.2 g/L of KH₂PO₄, 8 g/L of NaCl, and 1.15 g/L of Na₂HPO₄. Preparation of PBS(+) solution: One PBS(-) tablet was dissolved in 80 ml distilled water; 10 mg of CaCl₂ was dissolved in 10 ml distilled water; 10 mg of MgCl₂, 6H₂O was dissolved in 10 ml distilled water. These solutions were separately autoclaved, as described above, and mixed when cooled.

As to `CCOC(=O)CN(C)[C@@H]1[C@H](O[C@@H]2OC[C@@H](O)[C@H](O)[C@H]2O)[C@@H](O)[C@H](O[C@H]2c3cc(C)c(C(=O)N[C@H](C)C(=O)O)c(O)c3-c3c(cc4c(c3O)C(=O)c3cc(OC)cc(O)c3C4=O)[C@@H]2O)O[C@@H]1C` [Ex. 3, N-(ethoxycarbonylmethyl) pradimicin A], the MIC was above 100 µg/mL in the data set on FA21436; above 100 µg/mL in [1]; 50 µg/mL (≈ 53.9 µM) in data set [2]; 100 µg/mL (≈ 108 µM) in data set [3]; 50 µg/mL (≈ 53.9 µM) with Candida albicans A9540 [4]; 25 µg/mL (≈ 27 µM) against Candida albicans IAM4888. The MIC in data set [5] was 6.3 µg/mL (≈ 6.8 µM); in data set [6] it was 6.3 µg/mL (≈ 6.8 µM); in [7], above 100 µg/mL; against Mucor spinosus IFO5317, above 100 µg/mL; in data set [8], above 100 µg/mL; in [9], 25 µg/mL (≈ 27 µM). Moreover, the minimum inhibitory concentration (MIC) in [10] and in [11] was above 100 µg/mL throughout. Further, the “Partial Inhibition, Asoergukkys flavus FA21436” value with FA21436 is 50.0 µg/mL. For the same molecule, the “Partial Inhibition, Aspergillus fumigatus IAM2034” value in [1] is listed as >100.0 (100.0) µg/ml. Besides, the “Partial Inhibition, Aspergillus fumigatus IAM2530” value in data set [2] (setting [13]) stood at 25.0 µg/mL. Further, in data set [3], the “Partial Inhibition, Blastomyces dermatidis D40” value stood at 12.5 µg/mL. Further, the “Partial Inhibition, Mucor spinosus IFO5317” value in the data set with Mucor spinosus IFO5317 was >100.0 (100.0) µg/ml. In data set [9], the “Partial Inhibition, Sprotricosis schenckii IFO8158” value was determined as 12.5 µg/mL. This molecule registered a PD₅₀ with Candida albicans A9540 [12] of 18 mg/kg. Moreover, the concentration in solution in “physchem” (Method II (-): PBS(-)) (solubility at 2 h) was 11000 µg/mL (≈ 11900 µM).
Regarding `COc1cc(O)c2c(c1)C(=O)c1c(cc3c(c1O)-c1c(cc(C)c(C(=O)N[C@H](C)C(=O)O)c1O)[C@H](O[C@@H]1O[C@H](C)[C@H](N(C)CC(=O)O)[C@H](O[C@@H]4OC[C@@H](O)[C@H](O)[C@H]4O)[C@H]1O)[C@H]3O)C2=O` [Ex. 1, N-(carboxymethyl) pradimicin A], the minimal inhibitory concentration (MIC) with FA21436 was above 100 µg/mL; in data set [1], above 100 µg/mL; in data set [2], 100 µg/mL (≈ 111 µM); in data set [3], above 100 µg/mL; with Candida albicans A9540 [4], 50 µg/mL (≈ 55.6 µM); against Candida albicans IAM4888 it was 50 µg/mL (≈ 55.6 µM). Also, the MIC was 25 µg/mL (≈ 27.8 µM) in data set [5]; 12.5 µg/mL (≈ 13.9 µM) in data set [6]; above 100 µg/mL in data set [7]; above 100 µg/mL in the data set on Mucor spinosus IFO5317; above 100 µg/mL in [8]; above 100 µg/mL in data set [9]. The minimum inhibitory concentration (MIC) in data set [10] and in data set [11] was above 100 µg/mL throughout. Further, the “Partial Inhibition, Aspergillus fumigatus IAM2034” value in data set [1] was determined as 50.0 µg/mL. Moreover, the “Partial Inhibition, Blastomyces dermatidis D40” value in [3] came out at 50.0 µg/mL. In addition, in the data set with Mucor spinosus IFO5317, the “Partial Inhibition, Mucor spinosus IFO5317” value was >100.0 (100.0) µg/ml. Besides, the “Partial Inhibition, Sprotricosis schenckii IFO8158” value in [9] stood at 50.0 µg/mL. This molecule also yielded a PD₅₀ in the data set with Candida albicans A9540 [12] of 45 mg/kg. In addition, the solubility at 2 h in “physchem” (Method II (+): PBS(+)) is above 31000 µg/mL; in the data set “physchem” (Method II (-): PBS(-)), above 30000 µg/mL.
Consider `COc1cc(O)c2c(c1)C(=O)c1c(cc3c(c1O)-c1c(cc(C)c(C(=O)N[C@H](C)C(=O)O)c1O)[C@H](O[C@@H]1O[C@H](C)[C@H](NCS(=O)(=O)O)[C@H](O[C@@H]4OC[C@@H](O)[C@H](O)[C@H]4O)[C@H]1O)[C@H]3O)C2=O` [Ex. 7, N-(sodiosulfomethyl) pradimicin C], for which the MIC in the data set with FA21436 was above 50 µg/mL; in [1], above 50 µg/mL; in data set [2], 3.1 µg/mL (≈ 3.37 µM); in data set [3] it was 3.1 µg/mL (≈ 3.37 µM); in the data set on Candida albicans A9540 [4], 3.1 µg/mL (≈ 3.37 µM); against Candida albicans IAM4888, 3.1 µg/mL (≈ 3.37 µM). Moreover, the MIC was 0.4 µg/mL (≈ 0.434 µM) in data set [5]; 0.4 µg/mL (≈ 0.434 µM) in [6]; above 50 µg/mL in data set [7]; above 50 µg/mL in the data set with Mucor spinosus IFO5317; above 50 µg/mL in data set [8]; 1.6 µg/mL (≈ 1.74 µM) in data set [9]. Besides, the MIC is 25 µg/mL (≈ 27.1 µM) in [10] and 50 µg/mL (≈ 54.3 µM) in data set [11]. For the same molecule, in the data set with FA21436, the “Partial Inhibition, Asoergukkys flavus FA21436” value stood at 3.1 µg/mL. The “Partial Inhibition, Trichophyton mentagrophytes #4329” value in data set [10] (setting [13]) came to 3.1 µg/mL. In addition, in the data set on Candida albicans A9540 [12], the PD₅₀ is reported as 7.2 mg/kg. In “physchem” (Method II (-): PBS(-)), this molecule registered a solubility at 2 h of 3 µg/mL (≈ 3.26 µM).
`COc1cc(O)c2c(c1)C(=O)c1c(cc3c(c1O)-c1c(cc(C)c(C(=O)N[C@H](C)C(=O)O)c1O)[C@H](O[C@@H]1O[C@H](C)[C@H](N(C)C(=O)CCN)[C@H](O[C@@H]4OC[C@@H](O)[C@H](O)[C@H]4O)[C@H]1O)[C@H]3O)C2=O` [Ex. 11, N-(β-alanyl) pradimicin A]: the minimal inhibitory concentration (MIC) in the data set on FA21436 is above 100 µg/mL; in [1], 100 µg/mL (≈ 110 µM); in [2], 50 µg/mL (≈ 54.8 µM); in data set [3], 12.5 µg/mL (≈ 13.7 µM); against Candida albicans A9540 [4], 12.5 µg/mL (≈ 13.7 µM); against Candida albicans IAM4888 it was 12.5 µg/mL (≈ 13.7 µM). Further, the minimal inhibitory concentration (MIC) was 1.6 µg/mL (≈ 1.75 µM) in data set [5]; 1.6 µg/mL (≈ 1.75 µM) in data set [6]; above 100 µg/mL in data set [7]; above 100 µg/mL in the data set with Mucor spinosus IFO5317; above 100 µg/mL in data set [8]; 6.3 µg/mL (≈ 6.91 µM) in data set [9]. Also, the minimum inhibitory concentration (MIC) in [10] and in data set [11] was 100 µg/mL (≈ 110 µM) in each case. Also, the “Partial Inhibition, Asoergukkys flavus FA21436” value in the data set on FA21436 is given as >100.0 (100.0) µg/ml. Besides, the “Partial Inhibition, Candida albicans A9540” value in the data set with Candida albicans A9540 [4] (setting [13]) was determined as 6.3 µg/mL. Also, the “Partial Inhibition, Candida albicans IAM4888” value with Candida albicans IAM4888 (setting [13]) stood at 6.3 µg/mL. Also, in the data set with Mucor spinosus IFO5317, the “Partial Inhibition, Mucor spinosus IFO5317” value amounted to 25.0 µg/mL. This molecule came in with a PD₅₀ in the data set with Candida albicans A9540 [12] of 36 mg/kg. Moreover, the solubility at 2 h in “physchem” (Method II (+): PBS(+)) came to 250 µg/mL (≈ 274 µM).
